Tested on: mice with closed head injury (CHI) and chronic variable stress (CVS)
Experiment: Behavioral tests after closed head injury plus chronic variable stress
Type: in vivo, mouse
Experimental: FIGS. 15A-15H illustrate the finding that Fyn inhibition rescues memory deficits after repeated mild head injury combined with chronic stress. FIG. 15A: Timeline for mice undergoing 14 days of chronic variable stress (CVS) and closed head injury (CHI) or Sham CVS & CHI paradigm. On Day 15, Rotarod testing was done to assess motor impairment in a subset of mice. The mice were treated with either AZD0530 (5 mg/kg/d) or Vehicle treatment for 10 weeks starting 24 hours after the final day of injury. This was followed by one week of behavioral testing, including novel object recognition test and Morris water maze prior to perfusion and immunohistochemistry. FIG. 15B: Rotarod prior to the treatment using the Sham and Injured groups. One-way ANOVA, p>0.05. Data are mean±SEM. n=8-9/group, each dot is one mouse. FIG. 15C: Novel object recognition test using the Sham mice and Injured mice with and without AZD0530 treatment. Two-way ANOVA, F(2,64)=5.258 p=0.007 for interaction of group with object, Sidak's multiple comparison test: Novel vs Familiar for Sham Vehicle (SV): p<0.0001, for Injured Vehicle (IV): p=0.99, for Injured AZD (IA): p=0.0002. Data are mean±SEM. n=9-13/group, each dot represents one mouse. FIG. 15D: Latency to reach a hidden platform in Morris water maze across 6 blocks of 4 swims for Sham mice and Injured mice with and without AZD0530 treatment. Data are mean±SEM. n=14-17/group. Two-way ANOVA for time and group with main effect of group, p<0.0001, F (2, 41)=47.24. Tukey's multiple comparison test: SV vs IV: p<0.0001, IV vs IA: p=0.98, SV vs IA: p<0.0001. FIG. 15E: Morris water maze probe trial for Sham or Injured mice treated with Vehicle or AZD0530, showing time in the Target quadrant. One way ANOVA: F(2,39)=9.410, p=0.0005, Tukey's multiple comparison test: SV vs IV: p=0.0003, IV vs IA: p=0.12, SV vs IA: p=0.05. Data are mean±SEM. n=13-15/group, each dot is one mouse. Dashed line indicates random chance performance. FIG. 15F: A second group of mice underwent a similar 14 days of chronic variable stress (CVS) plus closed head injury (CHI) or Sham CVS & CHI paradigm, and then starting on Day 121 were treated with either AZD0530 (5 mg/kg/d) or Vehicle for 10 weeks. The mice subsequently underwent Morris water maze testing. […] Data are mean±SEM. n=8-26/group. […] Data are mean±SEM. n=8-26/group, each dot is one mouse.
The injury model was based on the combination of Closed Head Injury (CHI) and Chronic Variable Stress (CVS). The Sham mice received Sham-CHI and Sham-CVS treatments.
Closed Head Injury (CHI) is a well-established mice injury model (Sangobowale et al, 2018, Neurotrauma 35:907-917). Mice were weighed prior to receiving Sham-CHI or CHI. […] Mice were placed on a heating pad to maintain body temperature while receiving the impact, as well as during the post-injury recovery period. The mice underwent a total of 14 consecutive days of CHI injury, once per day. The site of injury alternated between right and left hemispheres on consecutive days. Each CHI injury was performed 1-3 hours after that day's CVS exposure. Injury severity was assessed using time interval between injury and recovery of the righting reflex (Grin'kina et al., 2013, PLoS One 8, e53775). The mice were placed on a heat pad both while receiving the impact, as well as the period following the impact to preserve their core body temperature. Mice were returned to vivarium after restoration of their righting reflex and this was typically less than 5 minutes. […]

[1] = Injured mice, 5 mg/kg/day from Day 15, 10 weeks

SMILES: CN1CCN(CCOc2cc(OC3CCOCC3)c3c(Nc4c(Cl)ccc5c4OCO5)ncnc3c2)CC1 [saracatinib, N-(5-chloro-benzo[d][1,3]dioxol-4-yl)-7-(2-(4-methylpiperazin-1-yl)ethoxy)-5-(tetrahydro-2H-pyran-4-yloxy)quinazolin-4-amine]
- Morris water maze learning trials [1]: severely impaired learning relative to Sham Vehicle
- Morris water maze probe trial memory for platform location [1]: not statistically distinguishable from Sham Vehicle
- novel object recognition (Injured mice, 5 mg/kg/day oral gavage from Day 15 (24 hours after final injury), 10 weeks): recognized familiar objects as successfully as Sham Vehicle mice
- Morris water maze probe trial memory (Injured mice, treatment from Day 121 (107 days after final injury), 10 weeks): no evidence of improved memory
- Morris water maze latency in learning trials, Injured AZD vs Injured Vehicle (treatment from Day 121, 10 weeks): not significantly different from one another

Reference: patent US11241434B2, “Compositions and methods for improving cognition in a subject” (Yale University, priority 2013, dated 2022)
